Measurements taken from US8697739B2, “Bicyclic acetyl-CoA carboxylase inhibitors and uses thereof” (Novartis AG, priority 2010, dated 2014).

Molecular target: T1, human acetyl-CoA carboxylase 2 (ACC2) (Homo sapiens, UniProt O00763)
T1 construct: The cDNA encoding amino acids 144 to 2458 of human acetyl-CoA carboxylase 2; made in house; host or cells: Sf9 insect cells (baculovirus, pFastBac1)
Test: Acetyl-CoA carboxylase enzyme assay (malonyl-CoA formation by LC/MS/MS)
Type: biochemical
Conditions: recombinant human ACC2 (aa 144-2458); read-out: IC50 ACC2
How it was run: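 Malonyl-CoA formation was read by LC/MS/MS MRM against a [13C3]-malonyl-CoA internal standard, after acetic acid quench. The enzyme was baculovirus/Sf9-expressed human ACC2 residues 144–2458, given 15 minutes room-temperature compound preincubation in HEPES pH 7.5 buffer with MgCl2, citrate and DTT. Substrate solution held 50 μM acetyl-CoA, 120 μM ATP and 2 mM KHCO3.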

T1 sequence (O00763 144-2458): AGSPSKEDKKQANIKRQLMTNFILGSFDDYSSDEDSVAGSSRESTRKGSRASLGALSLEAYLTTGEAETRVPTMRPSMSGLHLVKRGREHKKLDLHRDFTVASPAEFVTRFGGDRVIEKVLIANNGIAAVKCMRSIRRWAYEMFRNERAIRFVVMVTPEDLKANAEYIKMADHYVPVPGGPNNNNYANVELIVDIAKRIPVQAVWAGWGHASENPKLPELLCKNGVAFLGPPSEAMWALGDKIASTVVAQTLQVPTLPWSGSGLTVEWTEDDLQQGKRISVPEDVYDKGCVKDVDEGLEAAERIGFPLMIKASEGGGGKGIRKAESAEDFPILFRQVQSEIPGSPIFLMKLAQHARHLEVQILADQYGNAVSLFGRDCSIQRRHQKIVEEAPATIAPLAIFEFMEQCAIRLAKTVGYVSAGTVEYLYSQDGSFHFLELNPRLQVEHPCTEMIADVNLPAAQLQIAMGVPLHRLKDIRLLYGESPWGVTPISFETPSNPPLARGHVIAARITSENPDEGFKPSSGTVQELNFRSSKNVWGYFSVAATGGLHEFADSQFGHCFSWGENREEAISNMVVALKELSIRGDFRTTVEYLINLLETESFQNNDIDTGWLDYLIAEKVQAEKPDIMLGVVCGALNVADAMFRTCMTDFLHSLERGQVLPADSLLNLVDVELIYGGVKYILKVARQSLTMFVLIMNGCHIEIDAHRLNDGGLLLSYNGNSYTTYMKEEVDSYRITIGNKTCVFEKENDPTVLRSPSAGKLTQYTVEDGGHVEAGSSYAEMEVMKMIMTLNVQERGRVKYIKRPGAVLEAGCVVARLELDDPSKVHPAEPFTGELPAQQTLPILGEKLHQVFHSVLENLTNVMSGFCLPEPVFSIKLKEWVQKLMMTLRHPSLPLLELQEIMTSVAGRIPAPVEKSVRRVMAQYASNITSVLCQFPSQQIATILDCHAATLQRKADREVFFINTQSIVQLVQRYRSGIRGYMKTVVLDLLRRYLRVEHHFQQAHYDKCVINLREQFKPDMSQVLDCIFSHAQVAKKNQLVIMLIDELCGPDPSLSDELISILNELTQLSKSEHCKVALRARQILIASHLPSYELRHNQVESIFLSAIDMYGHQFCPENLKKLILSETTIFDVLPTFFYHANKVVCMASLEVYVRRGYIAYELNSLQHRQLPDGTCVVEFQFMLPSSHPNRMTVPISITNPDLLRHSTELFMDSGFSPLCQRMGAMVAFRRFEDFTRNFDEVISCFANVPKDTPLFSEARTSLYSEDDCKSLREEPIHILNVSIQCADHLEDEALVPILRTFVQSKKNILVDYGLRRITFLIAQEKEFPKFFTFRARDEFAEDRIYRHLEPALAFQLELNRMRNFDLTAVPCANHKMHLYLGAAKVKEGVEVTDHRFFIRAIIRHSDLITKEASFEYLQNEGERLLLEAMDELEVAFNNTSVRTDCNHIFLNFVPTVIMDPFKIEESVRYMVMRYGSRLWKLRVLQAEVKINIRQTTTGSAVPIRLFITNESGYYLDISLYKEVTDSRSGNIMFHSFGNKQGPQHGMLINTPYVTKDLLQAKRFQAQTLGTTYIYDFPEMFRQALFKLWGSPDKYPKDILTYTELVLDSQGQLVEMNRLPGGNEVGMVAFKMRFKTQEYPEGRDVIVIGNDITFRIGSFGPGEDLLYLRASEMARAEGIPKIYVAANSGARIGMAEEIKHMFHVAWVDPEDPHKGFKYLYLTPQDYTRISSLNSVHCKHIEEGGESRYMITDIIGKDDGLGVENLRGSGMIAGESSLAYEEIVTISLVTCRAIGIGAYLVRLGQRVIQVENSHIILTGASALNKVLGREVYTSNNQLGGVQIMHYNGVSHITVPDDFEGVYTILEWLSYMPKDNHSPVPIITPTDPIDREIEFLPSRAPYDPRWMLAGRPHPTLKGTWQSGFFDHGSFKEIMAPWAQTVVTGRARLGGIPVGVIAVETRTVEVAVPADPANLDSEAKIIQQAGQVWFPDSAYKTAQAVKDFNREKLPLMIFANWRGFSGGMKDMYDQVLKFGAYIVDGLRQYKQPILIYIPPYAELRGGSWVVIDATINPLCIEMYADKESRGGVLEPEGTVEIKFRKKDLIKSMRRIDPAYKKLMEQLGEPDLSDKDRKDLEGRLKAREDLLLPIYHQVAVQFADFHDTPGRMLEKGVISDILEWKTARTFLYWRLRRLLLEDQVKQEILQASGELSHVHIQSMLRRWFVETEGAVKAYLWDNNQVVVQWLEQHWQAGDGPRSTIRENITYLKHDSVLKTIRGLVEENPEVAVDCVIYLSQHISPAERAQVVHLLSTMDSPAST

| SMILES | IC50 |
| --- | --- |
| Cc1ccccc1-c1cc2ccc(S(=O)(=O)N[C@H]3CC[C@H](C(=O)N4CCOC[C@@H]4C)CC3)cc2[nH]1 [Example 482, N-((1S,4r)-4-((S)-3-methylmorpholine-4-carbonyl)cyclohexyl)-2-o-tolyl-1H-indole-6-sulfonamide] | 90 nM |
| CCOC(=O)CCc1cn(C)c2ccc(S(=O)(=O)N[C@H]3CC[C@H](C(=O)N[C@H](C)c4ccc(F)cc4)CC3)cc12 [Example 487] | 91 nM |
| CC(C)OC(=O)c1ccc(NS(=O)(=O)c2ccc3[nH]c(-c4ccccc4)nc3c2)cc1 [Example 488, isopropyl 4-(2-phenyl-1H-benzo[d]imidazole-5-sulfonamido)benzoate] | 1030 nM |
| CC(C)(C)OC(=O)c1ccc(NS(=O)(=O)c2ccc3[nH]c(-c4ccccc4)nc3c2)cc1 [Example 489, tert-butyl 4-(2-phenyl-1H-benzo[d]imidazole-5-sulfonamido)benzoate] | 1110 nM |
| O=C(Nc1ccccc1)c1ccc(NS(=O)(=O)c2ccc3[nH]c(-c4ccccc4)nc3c2)cc1 [Example 490, N-phenyl-4-(2-phenyl-1H-benzo[d]imidazole-5-sulfonamido)benzamide] | > 139000 nM |
| CCCCOC(=O)c1ccc(NS(=O)(=O)c2ccc3nc(-c4ccccc4)[nH]c3c2)cc1 [Example 491, butyl 4-(2-phenyl-1H-benzo[d]imidazole-6-sulfonamido)benzoate] | 1130 nM |
| COc1ccccc1-c1nc2ccc(S(=O)(=O)Nc3ccc(C(=O)OC(C)C)cc3)cc2[nH]1 [Example 492, isopropyl 4-(2-(2-methoxyphenyl)-1H-benzo[d]imidazole-6-sulfonamido)benzoate] | 1350 nM |
| CCCOC(=O)c1ccc(OS(=O)(=O)c2ccc3nc(-c4ccccc4)[nH]c3c2)cc1 [Example 493, propyl 4-(2-phenyl-1H-benzo[d]imidazol-6-ylsulfonyloxy)benzoate] | > 139000 nM |
| CC(=O)c1cccc(-c2nc3ccc(S(=O)(=O)Nc4ccc(C(=O)OC(C)C)cc4)cc3[nH]2)c1 [Example 494, isopropyl 4-(2-(3-acetylphenyl)-1H-benzo[d]imidazole-6-sulfonamido)benzoate] | 1890 nM |
| CC(=O)c1ccc(-c2nc3ccc(S(=O)(=O)Nc4ccc(C(=O)OC(C)C)cc4)cc3[nH]2)cc1 [Example 495, isopropyl 4-(2-(4-acetylphenyl)-1H-benzo[d]imidazole-6-sulfonamido)benzoate] | 990 nM |
| CC(C)OC(=O)c1ccc(NS(=O)(=O)c2ccc3nc(-c4cccc(F)c4)[nH]c3c2)cc1 [Example 496, isopropyl 4-(2-(3-fluorophenyl)-1H-benzo[d]imidazole-6-sulfonamido)benzoate] | 2340 nM |
| COc1ccc(-c2nc3ccc(S(=O)(=O)Nc4ccc(C(=O)OC(C)C)cc4)cc3[nH]2)cc1 [Example 497, isopropyl 4-(2-(4-methoxyphenyl)-1H-benzo[d]imidazole-6-sulfonamido)benzoate] | 762 nM |

More lines, now with the values ahead:

| IC50 | SMILES |
| --- | --- |
| < 10 nM | CC(C)[C@H]1COCCN1C(=O)[C@H]1CC[C@H](NS(=O)(=O)c2ccc3c(Cl)c(-c4ccccc4)[nH]c3c2)CC1 [Example 468, 3-chloro-N-((1S,4r)-4-((S)-3-isopropylmorpholine-4-carbonyl)cyclohexyl)-2-phenyl-1H-indole-6-sulfonamide] |
| 90 nM | CC1(C)CN(C(=O)[C@H]2CC[C@H](NS(=O)(=O)c3ccc4c(Cl)c(-c5ccccc5)[nH]c4c3)CC2)CCO1 [Example 469, 3-chloro-N-((1r,4r)-4-(2,2-dimethylmorpholine-4-carbonyl)cyclohexyl)-2-phenyl-1H-indole-6-sulfonamide] |
| < 10 nM | COCCc1ccc(-c2cc3ccc(S(=O)(=O)N[C@H]4CC[C@H](C(=O)N5CCOC[C@@H]5C5CC5)CC4)cc3[nH]2)cc1 [Example 470, N-((1S,4r)-4-((S)-3-cyclopropylmorpholine-4-carbonyl)cyclohexyl)-2-(4-(2-methoxyethyl)phenyl)-1H-indole-6-sulfonamide] |
| < 10 nM | COCCc1ccc(-c2[nH]c3cc(S(=O)(=O)N[C@H]4CC[C@H](C(=O)N5CCOC[C@@H]5C5CC5)CC4)ccc3c2Cl)cc1 [Example 471, 3-chloro-N-((1S,4r)-4-((S)-3-cyclopropylmorpholine-4-carbonyl)cyclohexyl)-2-(4-(2-methoxyethyl)phenyl)-1H-indole-6-sulfonamide] |
| < 10 nM | O=C([C@H]1CC[C@H](NS(=O)(=O)c2ccc3cc(-c4ccccc4)[nH]c3c2)CC1)N1CCOC[C@@H]1C1CC1 [Example 472, N-((1S,4r)-4-((S)-3-cyclopropylmorpholine-4-carbonyl)cyclohexyl)-2-phenyl-1H-indole-6-sulfonamide] |
| 15 nM | C[C@@H]1CN(C(=O)[C@H]2CC[C@H](NS(=O)(=O)c3ccc4cc(-c5ccccc5)[nH]c4c3)CC2)C[C@H](C)O1 [Example 475, N-((1R,4r)-4-((2S,6R)-2,6-dimethylmorpholine-4-carbonyl)cyclohexyl)-2-phenyl-1H-indole-6-sulfonamide] |
| < 10 nM | Cn1c(-c2ccc(CCC(=O)O)cc2)cc2ccc(S(=O)(=O)N[C@H]3CC[C@H](C(=O)N4CCOC[C@@H]4C4CC4)CC3)cc21 [Example 476, 3-(4-(6-(N-((1S,4r)-4-((S)-3-cyclopropylmorpholine-4-carbonyl)cyclohexyl)sulfamoyl)-1-methyl-1H-indol-2-yl)phenyl)propanoic acid] |
| < 10 nM | CC(C)(CO)[C@@H](NC(=O)[C@H]1CC[C@H](NS(=O)(=O)c2ccc3c(Cl)c(-c4ccccc4)[nH]c3c2)CC1)c1ccccc1 [Example 478, (1r,4S)-4-(3-chloro-2-phenyl-1H-indole-6-sulfonamido)-N-((S)-3-hydroxy-2,2-dimethyl-1-phenylpropyl)cyclohexanecarboxamide] |
| < 10 nM | COCc1ccc(-c2[nH]c3cc(S(=O)(=O)N[C@H]4CC[C@H](C(=O)N5CCOC[C@@H]5C5CC5)CC4)ccc3c2Cl)cc1 [Example 480, 3-chloro-N-((1S,4r)-4-((S)-3-cyclopropylmorpholine-4-carbonyl)cyclohexyl)-2-(4-(methoxymethyl)phenyl)-1H-indole-6-sulfonamide] |
| 20 nM | Cc1ccccc1-c1cc2ccc(S(=O)(=O)N[C@H]3CC[C@H](C(=O)N4CCOC[C@@H]4C4CC4)CC3)cc2[nH]1 [Example 481, N-((1S,4r)-4-((S)-3-cyclopropylmorpholine-4-carbonyl)cyclohexyl)-2-o-tolyl-1H-indole-6-sulfonamide] |
| < 10 nM | Cc1c(-c2ccc(CCC(=O)O)cc2)n(C)c2cc(S(=O)(=O)N[C@H]3CC[C@H](C(=O)N4CCOC[C@@H]4C4CC4)CC3)ccc12 [Example 484, 3-(4-(6-(N-((1S,4r)-4-((S)-3-cyclopropylmorpholine-4-carbonyl)cyclohexyl)sulfamoyl)-1,3-dimethyl-1H-indol-2-yl)phenyl)propanoic acid] |
| 43 nM | COCCc1ccc(-c2[nH]c3cc(S(=O)(=O)N[C@H]4CC[C@H](C(=O)N5CCC6(CC5)COC6)CC4)ccc3c2Cl)cc1 [Example 485, N-((1r,4r)-4-(2-oxa-7-azaspiro[3.5]nonane-7-carbonyl)cyclohexyl)-3-chloro-2-(4-(2-methoxyethyl)phenyl)-1H-indole-6-sulfonamide] |
| 75 nM | CCn1c(-c2ccccc2)cc2ccc(S(=O)(=O)N[C@H]3CC[C@H](C(=O)N4CCOC[C@@H]4C)CC3)cc21 [Example 486, 1-ethyl-N-((1S,4r)-4-((S)-3-methylmorpholine-4-carbonyl)cyclohexyl)-2-phenyl-1H-indole-6-sulfonamide] |
